Measured values published in EP4473961A1, “ORAL SOLID PHARMACEUTICAL FORMULATION COMPRISING METHADONE/LEVOMETHADONE AND OPTIONALLY NALOXONE” (L. MOLTENI & C. DEI FRATELLI ALITTI SOCIETA' DI ESERCIZIO …, priority 2023, dated 2024).

Test system: crisis of withdrawal from morphine
Details: rat, in vivo

With `CCC(=O)C(CC(C)N(C)C)(c1ccccc1)c1ccccc1` (centres unmarked) [methadone] the “effect on withdrawal symptoms” value was “significantly reduced the symptoms” and the “values of the scores relative to the group treated with morphine alone” value was “about 50%”.
